Activity calls are given as the source filed them. The rule behind the calls is not given here.
Experiments:
HCT-116 [1] = experiment: Decrease in beta-catenin/TCF/Lef combination expression in human HCT-116 cells at 1 to 4 uM incubated for 24 hrs by western blotting analysis; type: functional, cell-based; details: dose 1-4 µM
CT26 [2] = experiment: Anticancer activity against mouse CT26 cells transplanted in […] mouse assessed as reduction in tumor growth at 10 to 40 mg/kg, po daily measured after 21 days; type: functional, organism-based; details: dose 10-40 mg/kg, time 21.0 day
[3] = Cytotoxicity against human GES1 cells assessed as cell viability incubated for 48 hrs by MTT assay; type: toxicity, cell-based
HCT-116 [4] = experiment: Induction of cell cycle arrest in human HCT-116 cells assessed as decrease in CDK6 level incubated for 24 hrs by Western blot analysis; type: functional, cell-based
[5] = target: T1, Cyclin-dependent kinase 8 (Homo sapiens, UniProt P49336); experiment: Binding affinity to CDK8-Flag (unknown origin) transfected in HEK293T cells; type: cell-based
[6] = target: T1, Cyclin-dependent kinase 8; experiment: Binding affinity to CDK8 in human HCT-116 cells by measuring competition with biotinylated (1-(4-((6-aminopyridin-3-yl)oxy)phenyl)-3-(3-(trifluoromethyl)-phenyl)urea hydrochloride); type: cell-based
HCT-116 [7] = experiment: Induction of cell cycle arrest in human HCT-116 cells assessed as increase in cells at G2/M phase measured after 48 hrs by flow cytometry; type: functional, cell-based
HCT-116 [8] = experiment: Induction of cell cycle arrest in human HCT-116 cells assessed as increase in cells at S phase measured after 48 hrs by flow cytometry; type: functional, cell-based
Homo sapiens [9] = species on record: Homo sapiens; experiment: Selectivity ratio of IC50 for human CDK7 to IC50 for human CDK8
HCT-116 [10] = experiment: Decrease in WNT-3alpha expression in human HCT-116 cells at 1 to 4 uM incubated for 12hrs by western blotting analysis; type: functional, cell-based; details: dose 1-4 µM
[11] = Toxicity in ICR mouse assessed as lung damage at 1000 mg/kg, using gastric tube by H&E staining assay; type: organism-based; details: in vivo, po, route ig
[12] = Tmax in Sprague-Dawley rat at 10 mg/kg, po upto 24 hrs by HPLC analysis; type: ADME, organism-based; details: in vivo
HCT-116 [13] = experiment: Decrease in Cyclin D1 expression in human HCT-116 cells at 1 to 4 uM incubated for 48 hrs by western blotting analysis; type: functional, cell-based; details: dose 1-4 µM
[14] = Cmax in Sprague-Dawley rat at 2 mg/kg, iv upto 24 hrs by HPLC analysis; type: ADME, organism-based; design: dose 2 mg/kg, time < 24 hrs, route iv; details: in vivo
HT-29 = experiment: Antiproliferative activity against human HT-29 cells assessed as cell viability incubated for 48 hrs by MTT assay; type: functional
[15] = Half life in Sprague-Dawley rat at 2 mg/kg, iv upto 24 hrs by HPLC analysis; type: ADME, organism-based; details: in vivo
[16] = AUC (0 to infinitive) in Sprague-Dawley rat at 10 mg/kg, po upto 24 hrs by HPLC analysis; type: ADME, organism-based; design: dose 10 mg/kg, time < 24 hrs, route po; details: in vivo
HCT-116 [17] = experiment: Decrease in beta-catenin/TCF combination expression in human HCT-116 cells transfected with TOPFLASH at 1 to 4 uM incubated for 24 hrs by luciferase assay; type: functional, cell-based; details: dose 1-4 µM
[18] = target: T1, Cyclin-dependent kinase 8; experiment: Inhibition of CDK8 (unknown origin) assessed as inhibition rate
HCT-116 [19] = experiment: Decrease in C-Myc expression in human HCT-116 cells at 1 to 4 uM incubated for 48 hrs by western blotting analysis; type: functional, cell-based; details: dose 1-4 µM
HCT-116 [20] = experiment: Reduction in P-gp expression in sorafenib-resistant human HCT-116 cells by Western blot analysis; type: functional, cell-based; details: dose 1-4 µM, DDE = dose-dependent effect
[21] = Toxicity in Balb/c mouse assessed as ALT level in serum at 1000 mg/kg, using gastric tube; type: organism-based; details: in vivo, po, route ig
[22] = target: T1, Cyclin-dependent kinase 8; experiment: Inhibition of CDK8 in human HCT-116 cells assessed as inhibition of STAT1 phosphorylation at Ser727 by Western blot analysis; type: cell-based
[23] = Oral bioavailability in Sprague-Dawley rat at 10 mg/kg upto 24 hrs by HPLC analysis; type: ADME, organism-based; details: in vivo
[24] = target: T1, Cyclin-dependent kinase 8; experiment: Binding affinity to CDK8 in human HCT-116 cells assessed as increase in degradation temperature of protein by CETSA (reference value: 49 degC); type: cell-based
HCT-116 [25] = experiment: Induction of cell cycle arrest in human HCT-116 cells assessed as decrease in p-Rb S780 level incubated for 24 hrs by Western blot analysis; type: functional, cell-based
HCT-116 [26] = experiment: Induction of cell cycle arrest in human HCT-116 cells assessed as increase in E2F1 level incubated for 24 hrs by Western blot analysis; type: functional, cell-based
Homo sapiens [27] = species on record: Homo sapiens; experiment: Selectivity ratio of IC50 for human CDK6 to IC50 for human CDK8
[28] = Half life in Sprague-Dawley rat at 10 mg/kg, po upto 24 hrs by HPLC analysis; type: ADME, organism-based; details: in vivo
[29] = target: Cyclin-dependent kinase 6 (Homo sapiens, UniProt Q00534); experiment: Inhibition of CDK6 (unknown origin) assessed as inhibition rate
CT26 [30] = experiment: Antiproliferative activity against […] cells assessed as cell viability incubated for 48 hrs by MTT assay; type: functional; details: Mus musculus
HCT-116 [31] = experiment: Antiproliferative activity against human HCT-116 cells assessed as cell viability incubated for 48 hrs by MTT assay; type: functional
[32] = AUC (0 to infinitive) in Sprague-Dawley rat at 2 mg/kg, iv upto 24 hrs by HPLC analysis; type: ADME, organism-based; design: time < 24 hrs, dose 2 mg/kg, route iv; details: in vivo
HCT-116 [33] = experiment: Decrease in Lef expression in human HCT-116 cells at 1 to 4 uM incubated for 48 hrs by western blotting analysis; type: functional, cell-based; details: dose 1-4 µM
[34] = Toxicity in ICR mouse assessed as liver damage at 1000 mg/kg, using gastric tube by H&E staining assay; type: organism-based; details: in vivo, po, route ig
HCT-116 [35] = experiment: Induction of cell cycle arrest in human HCT-116 cells assessed as increase in cells at G1 phase measured after 48 hrs by flow cytometry; type: functional, cell-based
[36] = Toxicity in ICR mouse assessed as heart damage at 1000 mg/kg, using gastric tube by H&E staining assay; type: organism-based; details: in vivo, po, route ig
CT26 [37] = experiment: In vivo inhibition of CDK8 in mouse CT26 cells transplanted in […] mouse assessed as downregulation of c-Myc in tumor at 10 to 40 mg/kg, po daily measured after 21 days; type: functional, organism-based; details: dose 10-40 mg/kg, time 21.0 day
HCT-116 [38] = experiment: Potency index, ratio of Sorafenib IC50 to test compound IC50 for antiproliferative activity against human HCT-116 cells incubated for 48 hrs by MTT assay; type: functional
CT26 [39] = experiment: In vivo inhibition of CDK8 in mouse CT26 cells transplanted in […] mouse assessed as downregulation of beta-catenin in tumor at 10 to 40 mg/kg, po daily measured after 21 days; type: functional, organism-based; details: dose 10-40 mg/kg, time 21.0 day
HCT-116 [40] = experiment: Decrease in beta-catenin expression in human HCT-116 cells at 1 to 4 uM incubated for 12 hrs by western blotting analysis; type: functional, cell-based; details: dose 1-4 µM
[41] = Toxicity in Balb/c mouse assessed as MPO level in serum at 1000 mg/kg, using gastric tube; type: organism-based; details: in vivo, po, route ig
HCT-116 [42] = experiment: Decrease in TCF1 expression in human HCT-116 cells at 1 to 4 uM incubated for 48 hrs by western blotting analysis; type: functional, cell-based; details: dose 1-4 µM
SW480 = experiment: Antiproliferative activity against human SW480 cells assessed as cell viability incubated for 48 hrs by MTT assay; type: functional
HCT-116 [43] = experiment: Decrease in LRP6 expression in human HCT-116 cells at 1 to 4 uM incubated for 12 hrs by western blotting analysis; type: functional, cell-based; details: dose 1-4 µM

T1 sequence (P49336 whole entry): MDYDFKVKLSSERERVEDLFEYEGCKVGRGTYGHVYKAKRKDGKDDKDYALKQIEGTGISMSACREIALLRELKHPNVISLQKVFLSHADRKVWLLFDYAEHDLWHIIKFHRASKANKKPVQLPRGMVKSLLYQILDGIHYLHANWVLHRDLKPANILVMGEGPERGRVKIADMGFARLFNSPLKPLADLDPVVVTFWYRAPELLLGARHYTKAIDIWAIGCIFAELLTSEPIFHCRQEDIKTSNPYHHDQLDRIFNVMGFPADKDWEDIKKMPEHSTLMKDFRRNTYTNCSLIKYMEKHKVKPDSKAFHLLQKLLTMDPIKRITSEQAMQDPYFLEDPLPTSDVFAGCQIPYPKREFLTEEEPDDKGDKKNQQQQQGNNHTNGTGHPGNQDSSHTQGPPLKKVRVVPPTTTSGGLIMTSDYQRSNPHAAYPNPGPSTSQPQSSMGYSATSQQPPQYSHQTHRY
Cyclin-dependent kinase 6, sequence (Q00534 whole entry): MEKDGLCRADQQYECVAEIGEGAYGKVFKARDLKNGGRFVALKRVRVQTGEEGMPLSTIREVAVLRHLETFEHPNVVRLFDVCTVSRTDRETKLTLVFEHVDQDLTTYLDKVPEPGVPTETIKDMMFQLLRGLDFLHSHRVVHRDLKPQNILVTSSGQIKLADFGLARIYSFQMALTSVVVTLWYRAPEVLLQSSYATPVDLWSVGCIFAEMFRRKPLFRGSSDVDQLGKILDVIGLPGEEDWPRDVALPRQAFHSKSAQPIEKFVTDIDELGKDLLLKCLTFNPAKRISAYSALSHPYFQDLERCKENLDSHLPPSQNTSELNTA

Question: For `Nc1ccc(Oc2ccc(NC(=O)Nc3cccc(C(F)(F)F)c3)cc2)cn1`, which Activity (HCT-116 [1]) is on record?
Answer: The Activity was “Active”.

Question: And the Activity (CT26 [2])?
Answer: Its Activity is “Active”.

Question: And the GI50 at 48 h [3]?
Answer: The GI50 at 48 h was 62700 nM.

Question: And the Activity (HCT-116 [4])?
Answer: The Activity was “Active”.

Question: What about the Activity [5] of the same molecule?
Answer: The Activity was “Active”.

Question: And the Activity [6]?
Answer: Its Activity is “Active”.

Question: And the Activity (HCT-116 [7])?
Answer: Its Activity is “Active”.

Question: And the Activity (HCT-116 [8])?
Answer: Its Activity is “Active”.

Question: And the Ratio IC50 (Homo sapiens [9])?
Answer: The Ratio IC50 was 2.

Question: And the Activity (HCT-116 [10])?
Answer: Its Activity is “Active”.

Question: What about the Activity [11] of the same molecule?
Answer: The Activity was “Non-Toxic”.

Question: And the Tmax [12]?
Answer: Its Tmax is 48 min.

Question: What about the Activity (HCT-116 [13]) of the same molecule?
Answer: The Activity was “Active”.

Question: And the Cmax [14]?
Answer: The Cmax was 318 ng/mL.

Question: And the GI50 (HT-29)?
Answer: Its GI50 is 700 nM.

Question: What about the half-life [15] of the same molecule?
Answer: The half-life was 30 min.

Question: And the AUC(0-inf) [16]?
Answer: Its AUC(0-inf) is 665 ng·h/mL.

Question: And the Activity (HCT-116 [17])?
Answer: The Activity was “Active”.

Question: What about the IC50 [18] of the same molecule?
Answer: The IC50 was 46.5 nM.

Question: What about the Activity (HCT-116 [19]) of the same molecule?
Answer: Its Activity is “Active”.

Question: What about the Activity (HCT-116 [20]) of the same molecule?
Answer: The Activity was “Dde”.

Question: And the Activity [21]?
Answer: The Activity was “Non-Toxic”.

Question: What about the inhibition [22] of the same molecule?
Answer: Its inhibition is “Active”.

Question: And the bioavailability [23]?
Answer: The bioavailability was 31.7%.

Question: What about the Tm [24] of the same molecule?
Answer: The Tm was 55 °C.

Question: And the Activity (HCT-116 [25])?
Answer: Its Activity is “Active”.

Question: And the Activity (HCT-116 [26])?
Answer: The Activity was “Active”.

Question: And the Ratio IC50 (Homo sapiens [27])?
Answer: Its Ratio IC50 is 2.

Question: What about the half-life [28] of the same molecule?
Answer: The half-life was 66 min.

Question: And the IC50 [29]?
Answer: Its IC50 is 251 nM.

Question: And the GI50 (CT26 [30])?
Answer: Its GI50 is 5500 nM.

Question: And the GI50 (HCT-116 [31])?
Answer: The GI50 was 1200 nM.

Question: What about the AUC(0-inf) [32] of the same molecule?
Answer: Its AUC(0-inf) is 382 ng·h/mL.

Question: What about the Activity (HCT-116 [33]) of the same molecule?
Answer: The Activity was “Active”.

Question: And the Activity [34]?
Answer: Its Activity is “Non-Toxic”.

Question: And the Activity (HCT-116 [35])?
Answer: The Activity was “Active”.

Question: And the Activity [36]?
Answer: The Activity was “Non-Toxic”.

Question: What about the Activity (CT26 [37]) of the same molecule?
Answer: Its Activity is “Active”.

Question: What about the Ratio (HCT-116 [38]) of the same molecule?
Answer: Its Ratio is 3.6.

Question: And the Activity (CT26 [39])?
Answer: Its Activity is “Active”.

Question: What about the Activity (HCT-116 [40]) of the same molecule?
Answer: The Activity was “Active”.

Question: And the Activity [41]?
Answer: The Activity was “Non-Toxic”.

Question: And the Activity (HCT-116 [42])?
Answer: The Activity was “Active”.

Question: What about the GI50 (SW480) of the same molecule?
Answer: The GI50 was 2400 nM.

Question: And the Activity (HCT-116 [43])?
Answer: Its Activity is “Active”.

From ChEMBL document CHEMBL5104182, “Design and Synthesis of a 2-Amino-pyridine Derivative as a Potent CDK8 Inhibitor for Anti-colorectal Cancer Therapy” (J Med Chem, 2022)
